Literature values as cited in patent publication US6387950B2, “Treatment of tumors with RARα selective retinoid compounds in combination with other anti-tumor agents” (Allergan Sales, Inc., priority 2000, dated 2002).

What was measured:
carcinoma cell lines = conditions: in some of the cell lines; Fanjul et al. 1996; cited from earlier work
RARγ receptors = biological target: T1, RARγ receptors (Homo sapiens, UniProt P13631); conditions: Fanjul et al. 1996; cited from earlier work
T1 sequence (P13631 1-454): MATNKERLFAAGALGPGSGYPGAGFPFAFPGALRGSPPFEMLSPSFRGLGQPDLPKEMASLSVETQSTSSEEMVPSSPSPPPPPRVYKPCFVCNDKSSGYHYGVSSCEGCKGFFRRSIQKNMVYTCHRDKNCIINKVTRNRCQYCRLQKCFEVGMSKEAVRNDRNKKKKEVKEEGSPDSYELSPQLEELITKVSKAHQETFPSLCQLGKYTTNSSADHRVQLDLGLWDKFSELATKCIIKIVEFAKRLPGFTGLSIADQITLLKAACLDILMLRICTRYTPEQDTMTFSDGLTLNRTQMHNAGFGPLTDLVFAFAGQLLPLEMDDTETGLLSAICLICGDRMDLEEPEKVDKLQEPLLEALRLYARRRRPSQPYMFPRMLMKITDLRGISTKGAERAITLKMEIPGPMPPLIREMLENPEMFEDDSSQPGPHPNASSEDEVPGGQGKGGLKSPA

[1] = system: MCF-7 human breast cancer lines; conditions: Toma et al. 1997; cited from earlier work
[2] = system: MCF-7 human carcinoma cell lines; conditions: Kurbacher et al. 1996; cited from earlier work
[3] = system: MDA-MB 231 human carcinoma cell lines; conditions: Kurbacher et al. 1996; cited from earlier work

COC(=O)c1ccc(/C(C)=C/c2ccc3c(c2)C(C)(C)CCC3(C)C)cc1 [SRI 11220]
anti-proliferative activity in combination with interferon (carcinoma cell lines): synergistic
receptor activity (RARγ receptors): RARγ agonist

CC1=C(/C=C/C(C)=C/C=C/C(C)=C/C(=O)O)C(C)(C)CCC1 [all trans retinoic acid]
effect in combination with tamoxifen (TAM) [1]: synergistic effect
effect in combination with α interferon (α IFN) [1]: synergistic effects

O=C1O[C@H]([C@@H](O)CO)C(O)=C1O [vitamin C]
action with certain chemotherapeutic anti-tumor agents [2]: synergistic action
action with certain chemotherapeutic anti-tumor agents [3]: synergistic action
